In patent US9434711B2 (Janssen Pharmaceutica, NV, priority 2007, dated 2016):

Biological target: canine TRPM8 (Canis lupus familiaris, UniProt Q1A7N1)
Test: In Vitro Canine TRPM8 Functional Assay (Ca2+ fluorescence, icilin activation)
Type: cell-based
Conditions: for IC50: HEK293 cells stably expressing canine TRPM8, icilin activation, eight-point dose-response, read-out: IC50; for inhibition at 0.5 µM / % Inh @ 0.5 (μM): compound at 0.5 μM; for inhibition at 0.5 µM / inhibition at 0.2 µM / % Inh @ 0.5 (μM): canine TRPM8, icilin activation; for inhibition at 0.5 µM: read-out: % Inh @ 0.5; for inhibition at 0.2 µM: compound at 0.2 μM, read-out: % Inh @ 0.2
Experimental: The functional activity of compounds of the formula (I) was determined by measuring changes in intracellular calcium concentration using a Ca^2+-sensitive fluorescent dye. The changes in fluorescent signal were monitored by a fluorescence plate reader, either a FLIPR™ (Molecular Devices) or FDSS (Hamamatsu).
At 24 hrs prior to assay, HEK293 cells stably expressing canine TRPM8 were seeded in culture medium in black wall, clear-base poly-D-lysine coated 384-well plates (BD Biosciences, NJ, USA) and grown overnight in 5% CO2 at 37° C. On assay day, growth media was removed and cells were loaded with Calcium 3 Dye (Molecular Devices) for 35 min at 37° C., under 5% CO2 and then for 25 min at room temperature and atmosphere. Subsequently, cells were tested for agonist-induced increases in intracellular Ca^2+ levels using FLIPR™ or FDSS. Cells were challenged with a compound of the Formula (I) (at varying concentrations) and intracellular Ca^2+ was measured for 5 min prior to the addition of icilin to all wells to achieve a final concentration that produces approximately an 80% maximal response. EC50 or IC50 values for compounds of the present invention were determined from eight-point dose-response studies. Curves were generated using the average of quadruplicate wells for each data point.

Sequence of canine TRPM8 (Q1A7N1 1-1104): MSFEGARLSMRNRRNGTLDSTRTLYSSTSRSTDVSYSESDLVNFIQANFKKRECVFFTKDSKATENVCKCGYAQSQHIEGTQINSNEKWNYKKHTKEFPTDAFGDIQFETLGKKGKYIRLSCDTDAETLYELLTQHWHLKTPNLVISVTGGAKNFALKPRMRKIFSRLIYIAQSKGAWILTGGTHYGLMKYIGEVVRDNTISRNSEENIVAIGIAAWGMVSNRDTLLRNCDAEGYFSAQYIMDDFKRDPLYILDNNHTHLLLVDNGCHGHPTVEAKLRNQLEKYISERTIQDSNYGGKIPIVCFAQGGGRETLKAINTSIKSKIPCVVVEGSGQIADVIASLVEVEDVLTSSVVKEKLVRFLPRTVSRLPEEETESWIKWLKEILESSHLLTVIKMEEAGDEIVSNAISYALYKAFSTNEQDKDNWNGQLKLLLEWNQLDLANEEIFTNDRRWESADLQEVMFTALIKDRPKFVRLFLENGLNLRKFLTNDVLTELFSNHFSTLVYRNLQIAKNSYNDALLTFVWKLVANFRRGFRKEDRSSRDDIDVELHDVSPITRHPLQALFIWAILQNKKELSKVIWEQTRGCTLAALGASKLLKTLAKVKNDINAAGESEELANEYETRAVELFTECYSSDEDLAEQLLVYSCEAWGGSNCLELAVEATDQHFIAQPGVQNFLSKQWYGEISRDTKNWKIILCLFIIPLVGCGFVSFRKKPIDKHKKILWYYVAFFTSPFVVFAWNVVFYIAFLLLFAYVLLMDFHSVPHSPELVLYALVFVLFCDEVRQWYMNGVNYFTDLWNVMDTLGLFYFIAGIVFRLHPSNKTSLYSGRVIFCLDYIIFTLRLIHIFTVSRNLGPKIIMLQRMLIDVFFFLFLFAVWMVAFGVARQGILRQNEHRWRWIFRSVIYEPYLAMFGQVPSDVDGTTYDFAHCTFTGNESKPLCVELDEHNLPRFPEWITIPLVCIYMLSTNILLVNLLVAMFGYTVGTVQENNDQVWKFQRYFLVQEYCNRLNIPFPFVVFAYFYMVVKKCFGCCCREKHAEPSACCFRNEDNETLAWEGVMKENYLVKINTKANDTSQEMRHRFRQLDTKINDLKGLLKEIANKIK

| SMILES | IC50 [nM] | inhibition at 0.5 µM [%] | inhibition at 0.2 µM [%] | % Inh @ 0.5 (μM) [%] |
| --- | --- | --- | --- | --- |
| Cc1c(N(Cc2cccc3cccnc23)S(=O)(=O)c2ccc3ncccc3c2)sc2ccccc12 [Compound 32, N-(3-Methyl-benzo[b]thiophen-2-yl)-N-(quinolin-8-ylmethyl)-quinoline-6-sulfonamide] | 37 | 100 | – | – |
| O=S(=O)(c1cccnc1)N(Cc1ccc(F)c(F)c1)c1cc2ccccc2s1 [Compound 33, N-(Benzo[b]thiophen-2-yl)-N-(3,4-difluoro-benzyl)-pyridine-3-sulfonamide] | 57.4 | 100 | – | – |
| CS(=O)(=O)N(Cc1ccc(F)c(F)c1)c1cc2ccccc2s1 [Compound 34, N-Benzo[b]thiophen-2-yl-N-(3,4-difluoro-benzyl)-methanesulfonamide] | 184 | 98 | – | – |
| CCS(=O)(=O)N(Cc1ccc(F)c(F)c1)c1cc2ccccc2s1 [Compound 35, N-(Benzo[b]thiophen-2-yl)-N-(3,4-difluoro-benzyl)-ethanesulfonamide] | 60.8 | 100 | – | – |
| CCCS(=O)(=O)N(Cc1ccc(F)c(F)c1)c1cc2ccccc2s1 [Compound 36, N-(Benzo[b]thiophen-2-yl)-N-(3,4-difluoro-benzyl)-propane-1-sulfonamide] | 77.1 | 98 | – | – |
| CCCCS(=O)(=O)N(Cc1ccc(F)c(F)c1)c1cc2ccccc2s1 [Compound 37, N-(Benzo[b]thiophen-2-yl)-N-(3,4-difluoro-benzyl)-butane-1-sulfonamide] | 98.3 | 96 | – | – |
| Cc1c(N(Cc2ccc(C(F)(F)F)c(F)c2)S(=O)(=O)c2cccs2)sc2ccccc12 [Compound 38, N-(3-Fluoro-4-trifluoromethyl-benzyl)-N-(3-methyl-benzo[b]thiophen-2-yl)-thiophene-2-sulfonamide] | 3 | 97 | – | – |
| Cc1c(N(Cc2ccc(F)c(C(F)(F)F)c2)S(=O)(=O)c2cccnc2)sc2ccccc12 [Compound 39, N-(4-Fluoro-3-trifluoromethyl-benzyl)-N-(3-methyl-benzo[b]thiophen-2-yl)-pyridine-3-sulfonamide] | 3.9 | 101 | – | – |
| CCS(=O)(=O)N(Cc1ccc(F)c(C(F)(F)F)c1)c1sc2ccccc2c1C [Compound 40, N-(4-Fluoro-3-trifluoromethyl-benzyl)-N-(3-methyl-benzo[b]thiophen-2-yl)-ethanesulfonamide] | 13.7 | 97 | – | – |
| CCS(=O)(=O)N(Cc1ccc(F)c(F)c1)c1sc2ccccc2c1C [Compound 41, N-(3,4-Difluoro-benzyl)-N-(3-methyl-benzo[b]thiophen-2-yl)-ethanesulfonamide] | 5.4 | 99 | – | – |
| CCS(=O)(=O)N(Cc1ccc(OC(F)(F)F)cc1)c1sc2ccccc2c1C [Compound 42, N-(3-Methyl-benzo[b]thiophen-2-yl)-N-(4-trifluoromethoxy-benzyl)-ethanesulfonamide] | 10.6 | 100 | – | – |
| CCS(=O)(=O)N(Cc1ccc(F)c(C(F)(F)F)c1)c1cc2ccccc2s1 [Compound 43, N-(Benzo[b]thiophen-2-yl)-N-(4-fluoro-3-trifluoromethyl-benzyl)-ethanesulfonamide] | 25 | 94 | – | – |
| Cc1c(N(Cc2ccc(F)c(F)c2)S(=O)(=O)N(C)C)sc2ccccc12 [Compound 44, N-(3,4-Difluoro-benzyl)-N-(3-methyl-benzo[b]thiophen-2-yl)-N′,N′-dimethylsulfamide] | 7 | 98 | – | – |
| CS(=O)(=O)N(Cc1ccc(F)c(C(F)(F)F)c1)c1cc2ccccc2s1 [Compound 45, N-(Benzo[b]thiophen-2-yl)-N-(4-fluoro-3-trifluoromethyl-benzyl)-methanesulfonamide] | 52 | – | 97 | – |
| O=S(=O)(c1ccccc1)N(Cc1ccc(Cl)cc1)c1cc2ccccc2s1 [Compound 46, N-(Benzo[b]thiophen-2-yl)-N-(4-chloro-benzyl)-benzenesulfonamide] | 84 | 99 | – | – |
| COc1ccccc1CN(c1cc2ccccc2s1)S(=O)(=O)c1ccccc1 [Compound 47, N-(Benzo[b]thiophen-2-yl)-N-(2-methoxy-benzyl)-benzenesulfonamide] | 112 | 97 | – | – |
| COc1cccc(CN(c2cc3ccccc3s2)S(=O)(=O)c2ccccc2)c1 [Compound 48, N-(Benzo[b]thiophen-2-yl)-N-(3-methoxy-benzyl)-benzenesulfonamide] | 79 | 98 | – | – |
| COc1ccc(CN(c2cc3ccccc3s2)S(=O)(=O)c2ccccc2)cc1 [Compound 49, N-(Benzo[b]thiophen-2-yl)-N-(4-methoxy-benzyl)-benzenesulfonamide] | 170 | 90 | – | – |

| SMILES | IC50 [nM] | inhibition at 0.5 µM [%] | inhibition at 0.2 µM [%] | % Inh @ 0.5 (μM) [%] |
| --- | --- | --- | --- | --- |
| O=S(=O)(c1ccccc1)N(Cc1ccccc1F)c1cc2ccccc2s1 [Compound 50, N-(Benzo[b]thiophen-2-yl)-N-(2-fluoro-benzyl)-benzenesulfonamide] | 66 | 99 | – | – |
| O=[N+]([O-])c1cccc(CN(c2cc3ccccc3s2)S(=O)(=O)c2ccccc2)c1 [Compound 51, N-(Benzo[b]thiophen-2-yl)-N-(3-nitro-benzyl)-benzenesulfonamide] | 78 | 98 | – | – |
| O=S(=O)(c1ccccc1)N(Cc1ccccn1)c1cc2ccccc2s1 [Compound 52, N-(Benzo[b]thiophen-2-yl)-N-(pyridin-2-ylmethyl)-benzenesulfonamide] | 116 | 99 | – | – |
| O=S(=O)(c1ccccc1)N(Cc1cccnc1)c1cc2ccccc2s1 [Compound 53, N-(Benzo[b]thiophen-2-yl)-N-(pyridin-3-ylmethyl)-benzenesulfonamide] | 164 | 97 | – | – |
| O=S(=O)(c1ccccc1)N(Cc1ccncc1)c1cc2ccccc2s1 [Compound 54, N-(Benzo[b]thiophen-2-yl)-N-(pyridin-4-ylmethyl)-benzenesulfonamide] | – | 65 | – | – |
| O=[N+]([O-])c1ccccc1CN(c1cc2ccccc2s1)S(=O)(=O)c1ccccc1 [Compound 55, N-(Benzo[b]thiophen-2-yl)-N-(2-nitro-benzyl)-benzenesulfonamide] | 65.5 | 99 | – | – |
| O=S(=O)(c1ccccc1)N(Cc1ccccc1OC(F)(F)F)c1cc2ccccc2s1 [Compound 56, N-(Benzo[b]thiophen-2-yl)-N-(2-trifluoromethoxy-benzyl)-benzenesulfonamide] | 103 | 99 | – | – |
| O=S(=O)(c1ccccc1)N(Cc1cccc(OC(F)(F)F)c1)c1cc2ccccc2s1 [Compound 57, N-(Benzo[b]thiophen-2-yl)-N-(3-trifluoromethoxy-benzyl)-benzenesulfonamide] | 108 | 100 | – | – |
| O=S(=O)(c1ccccc1)N(Cc1ccc(OC(F)(F)F)cc1)c1cc2ccccc2s1 [Compound 58, N-(Benzo[b]thiophen-2-yl)-N-(4-trifluoromethoxy-benzyl)-benzenesulfonamide] | 45.5 | 98 | – | – |
| O=S(=O)(c1ccccc1)N(Cc1ccccc1)c1cc2ccccc2s1 [Compound 59, N-(Benzo[b]thiophen-2-yl)-N-(benzyl)-benzenesulfonamide] | 44.5 | 98 | – | – |
| COc1cc(CN(c2cc3ccccc3s2)S(=O)(=O)c2ccccc2)ccc1F [Compound 60, N-(Benzo[b]thiophen-2-yl)-N-(4-fluoro-3-methoxy-benzyl)-benzenesulfonamide] | 28.3 | 97 | – | – |
| O=S(=O)(c1ccccc1)N(Cc1ccc(F)c(C(F)(F)F)c1)c1cc2ccccc2s1 [Compound 61, N-(Benzo[b]thiophen-2-yl)-N-(4-fluoro-3-trifluoromethyl-benzyl)-benzenesulfonamide] | 52.4 | 95 | – | – |
| Cc1ccccc1CN(c1cc2ccccc2s1)S(=O)(=O)c1ccccc1 [Compound 62] | 58.1 | – | – | 98 |
| Cc1cccc(CN(c2cc3ccccc3s2)S(=O)(=O)c2ccccc2)c1 [Compound 63] | 74 | – | – | 98 |
| COc1ccc(S(=O)(=O)N(Cc2ccc(F)c(C(F)(F)F)c2)c2sc3ccccc3c2C)cc1F [Compound 64, N-(4-Fluoro-3-trifluoromethyl-benzyl)-N-(3-methyl-benzo[b]thiophen-2-yl)-3-fluoro-4-methoxybenzenesulfonamide] | 19 | – | 96 | – |
| Cc1c(N(Cc2ccc(F)c(C(F)(F)F)c2)S(=O)(=O)c2ccc3ncsc3c2)sc2ccccc12 [Compound 65, N-(4-Fluoro-3-trifluoromethyl-benzyl)-N-(3-methyl-benzo[b]thiophen-2-yl)-benzothiazole-6-sulfonamide] | 17 | – | 97 | – |
| Cc1c(N(Cc2ccc(F)c(C(F)(F)F)c2)S(=O)(=O)c2ccc3[nH]c(=O)oc3c2)sc2ccccc12 [Compound 66, N-(4-Fluoro-3-trifluoromethyl-benzyl)-N-(3-methyl-benzo[b]thiophen-2-yl)-2-oxo-2,3-dihydro-benzooxazole-6-sulfonamide] | 4 | – | 96 | – |
